Assay results as given in PMC3504033, “Inhibition of Angiotensin-Converting Enzyme Activity by Flavonoids: Structure-Activity Relationship Studies” (PLoS ONE, 2012).
Like-named read-outs stand apart in the source and are kept apart here. Values belong to the compound of their own block, whether it stands above or below them.

Key:
[1] = molecular target: T1, Angiotensin-I Converting Enzyme from rabbit lung (Oryctolagus cuniculus, UniProt P12822); assay: ACE-inhibitory (ACEI) activity, fluorimetric assay with o-Abz-Gly-p-Phe(NO2)-Pro substrate; assay type: biochemical; conditions: for change of ACEI activity on structural change, vs. luteolin: compared with luteolin (Figure 3); for inhibition at 100 µM / inhibition at 500 µM: 0.5 h; for inhibition at 100 µM: mean of three experiments (Figure 2A); for relative IC50 ratio: IC50 relative to luteolin (1); for IC50: technical and biological triplicate, read-out: IC50 value (concentration that inhibits ACE activity by 50%)
T1 construct: Angiotensin-I Converting Enzyme from rabbit lung; purchased Sigma (Barcelona, Spain); host or cells: rabbit lung tissue
T1 sequence (P12822 34-1310): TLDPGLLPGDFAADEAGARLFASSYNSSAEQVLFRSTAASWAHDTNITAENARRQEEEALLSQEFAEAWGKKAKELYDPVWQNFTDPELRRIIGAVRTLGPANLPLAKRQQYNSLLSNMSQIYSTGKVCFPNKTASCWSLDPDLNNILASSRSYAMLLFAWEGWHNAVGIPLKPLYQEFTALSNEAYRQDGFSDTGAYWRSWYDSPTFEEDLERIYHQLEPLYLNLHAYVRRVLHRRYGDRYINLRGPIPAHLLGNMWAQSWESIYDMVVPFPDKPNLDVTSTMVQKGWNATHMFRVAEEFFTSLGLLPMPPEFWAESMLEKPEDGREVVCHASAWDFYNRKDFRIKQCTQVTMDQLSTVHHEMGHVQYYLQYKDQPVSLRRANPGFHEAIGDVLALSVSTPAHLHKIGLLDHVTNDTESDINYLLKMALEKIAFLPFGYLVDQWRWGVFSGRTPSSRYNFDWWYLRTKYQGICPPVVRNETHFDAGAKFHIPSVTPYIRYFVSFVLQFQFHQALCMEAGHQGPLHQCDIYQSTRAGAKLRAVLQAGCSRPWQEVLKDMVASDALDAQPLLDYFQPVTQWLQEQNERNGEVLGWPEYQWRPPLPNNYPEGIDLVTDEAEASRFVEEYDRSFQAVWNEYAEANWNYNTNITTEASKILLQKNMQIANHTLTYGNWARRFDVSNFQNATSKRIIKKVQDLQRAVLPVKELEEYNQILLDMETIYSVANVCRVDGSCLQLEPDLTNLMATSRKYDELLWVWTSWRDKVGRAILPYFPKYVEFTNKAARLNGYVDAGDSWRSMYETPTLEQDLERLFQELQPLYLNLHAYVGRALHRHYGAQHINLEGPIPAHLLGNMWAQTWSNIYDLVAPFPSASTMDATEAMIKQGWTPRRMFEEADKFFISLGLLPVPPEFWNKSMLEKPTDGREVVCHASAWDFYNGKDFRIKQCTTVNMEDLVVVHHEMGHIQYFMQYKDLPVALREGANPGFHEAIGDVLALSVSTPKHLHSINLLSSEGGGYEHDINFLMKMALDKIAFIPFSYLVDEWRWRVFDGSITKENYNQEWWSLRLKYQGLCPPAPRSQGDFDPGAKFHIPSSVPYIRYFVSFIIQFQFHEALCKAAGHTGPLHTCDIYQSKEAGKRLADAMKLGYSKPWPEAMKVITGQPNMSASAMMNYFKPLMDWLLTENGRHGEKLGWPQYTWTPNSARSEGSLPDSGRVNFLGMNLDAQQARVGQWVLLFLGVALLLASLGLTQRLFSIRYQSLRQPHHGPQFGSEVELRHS
Source text: o-aminobenzoylglycyl-p-nitro-phenylalanylproline (o-ABz-Gly-Phe(NO2)-Pro) was purchased from Bachem Feinchemikalien (Bubendorf, Switzerland). Five units of Angiotensin-I Converting Enzyme from rabbit lung and ZnCl2 were obtained from Sigma (Barcelona, Spain). […] Flavonoids were solubilized in dimethyl sulfoxide (DMSO) and prepared daily. In all experiments, the final concentration of DMSO was 0.4%. Distilled water was obtained from a Millipore Milli-Q® system.
Flavonoid solutions (100 and 500 µM) were prepared in DMSO (0.4%) daily. The 0.1 U/mL ACE solution stock was prepared in glycerol: water (1∶1), aliquoted and stored at −20°C. The 0.1 µM ZnCl2 stock solution was prepared and stored at 4°C. The ACE working solution was prepared daily by diluting it in 150 mM Tris buffer (pH 8.3) containing 0.1 µM ZnCl2.
ACEI activity was measured by a fluorimetric assay following the method of Sentandreu and Toldrá [43] with some modifications. […] Fluorescence was measured after 30 min in 96-well microplates (Thermo Scientific, Rochester, NY) using a multiscan microplate fluorimeter (Biotek. FL×800). Microplates (Thermo Scientific, Rochester, NY) were used in this assay. The excitation and emission wavelengths were 360 and 430 nm, respectively. The activity of each sample was tested in technical and biological triplicate.
The ACEI activity was calculated using the following formula: [drawing 1] where A is the fluorescence without the flavonoid solution, B is the fluorescence without ACE and C is the fluorescence in the presence of both ACE and the flavonoid solution. A flavonoid solution of 500 µM was selected on the basis of previous studies, [35], and the concentration of 100 µM was chosen because it is within the physiological concentration range. […] The IC50 of each selected flavonoid was tested in technical and biological triplicate. The results from three experiments are expressed as the mean ± SD and were performed in different platelet samples.

[2] = test system: ACE N domain; set-up: method as in PMID 11303049; conditions: ACE inhibition with N-domain-specific inhibitor; cited from earlier work
[3] = 100 µM flavonoid, purified lung ACE, 37°C, 30 min, read-out: percentage of ACE inhibition
[4] = 500 µM flavonoid, purified lung ACE, 37°C, 30 min, mean of three experiments (Figure 2B), read-out: percentage of ACE inhibition
[5] = read-out: percentage of ACE inhibition, 100 µM flavonoid, purified lung ACE, 37°C, 30 min

SMILES: COc1ccc(-c2cc(=O)c3c(O)cc(O)cc3o2)cc1O [Diosmetin]
change of ACEI activity on structural change, vs. luteolin ([1]; 100 µM): −78%
reduction of ACEI activity relative to luteolin ([1]; 100 µM): 78%
inhibition at 100 µM [1, 3]: 12.5%

SMILES: COc1ccc(-c2cc(=O)c3c(O)cc(O[C@@H]4O[C@H](CO[C@@H]5O[C@@H](C)[C@H](O)[C@@H](O)[C@H]5O)[C@@H](O)[C@H](O)[C@H]4O)cc3o2)cc1O [Diosmin]
inhibition at 100 µM [1, 3]: 9.3%
inhibition at 500 µM [1, 4]: > 30%

SMILES: O=c1cc(-c2ccc(O)cc2)oc2cc(O)cc(O)c12 [Apigenin]
change of ACEI activity on structural change, vs. luteolin ([1]; 100 µM): −57%
reduction of ACEI activity relative to luteolin ([1]; 100 µM): 57%
inhibition at 100 µM [1, 3]: 24.7%

SMILES: CC(=O)N[C@@H](CC(=O)O)C(=O)N[C@@H](Cc1ccccc1)P(=O)(O)C[C@@H](C)C(=O)N[C@@H](C)C(N)=O [RXP407]
effect on blood pressure regulation [2]: no effect on blood pressure regulation

SMILES: Oc1cc(O)c2c(c1)O[C@H](c1ccc(O)c(O)c1)[C@@H](O)C2 [Catechin]
inhibition at 100 µM [1, 3]: 7.5%
inhibition at 500 µM [1, 4]: 29%

SMILES: O=C1C[C@@H](c2ccc(O)cc2)Oc2cc(O)cc(O)c21 [Naringenin]
change of ACEI activity on structural change, vs. apigenin ([1]; 100 µM, compared with apigenin (Figure 3)): −91%
reduction of ACEI activity vs. apigenin ([1]; 100 µM, vs. apigenin): 91%
inhibition at 100 µM [1, 3]: 2.3%
inhibition at 500 µM [1, 4]: 22.3%

SMILES: O=c1cc(-c2ccc(O)cc2)oc2cc(O)cc(O)c12.[K] [Apigenin K]
relative IC50 ratio [1]: 8.52
IC50 [1]: 196 µM

SMILES: O=C1C[C@@H](c2ccc(O)cc2)Oc2cc(O)cc(O)c21.[K] [Naringenin K]
percentage of ACE inhibition ([1]; 500 µM flavonoid, purified lung ACE, 37°C, 30 min, mean of three experiments (Figure 2B), listed as narigenin K): higher than 30%

SMILES: O=c1c(O)c(-c2ccc(O)c(O)c2)oc2cc(O)cc(O)c12 [Quercetin]
change of ACEI activity on structural change, vs. luteolin ([1]; 100 µM): −44%
inhibition at 100 µM [1, 5]: > 30%

SMILES: COc1ccc(C2CC(=O)c3c(O)cc(OC4OC(COC5OC(C)C(O)C(O)C5O)C(O)C(O)C4O)cc3O2)cc1O (centres unmarked) [Hesperidin]
inhibition at 100 µM [1, 5]: 0%
inhibition at 500 µM ([1]; read-out: percentage of ACE inhibition, 500 µM flavonoid, purified lung ACE, 37°C, 30 min, mean of three experiments (Figure 2B)): 17%

The remaining lines, values ahead:

inhibition at 100 µM [1, 3]: 25.7%
inhibition at 500 µM [1, 4]: > 30%
SMILES: O=c1c(-c2ccc(O)cc2)coc2cc(O)cc(O)c12 [Genistein]

inhibition at 100 µM [1, 3]: > 30%
relative IC50 ratio [1]: 7.74
increase in the IC50 relative to quercetin ([1]; relative to quercetin): 4 fold
IC50 [1]: 178 µM
SMILES: O=c1c(O)c(-c2ccc(O)cc2)oc2cc(O)cc(O)c12 [Kaempferol]

change of ACEI activity on structural change, vs. luteolin ([1]; 100 µM): -36%
inhibition at 100 µM [1, 3]: > 30%
relative IC50 ratio [1]: 2.78
IC50 [1]: 64 µM
SMILES: C[C@@H]1O[C@@H](OC[C@H]2O[C@@H](Oc3c(-c4ccc(O)c(O)c4)oc4cc(O)cc(O)c4c3=O)[C@H](O)[C@@H](O)[C@@H]2O)[C@H](O)[C@H](O)[C@H]1O [Rutin, quercetin 3-O-glycoside]

change of ACEI activity on structural change, vs. luteolin ([1]; 100 µM): −74%
inhibition at 100 µM [1, 3]: 15%
inhibition at 500 µM [1, 4]: > 30%
SMILES: Oc1cc(O)c2c(c1)O[C@H](c1ccc(O)c(O)c1)[C@H](O)C2 [Epicatechin]

inhibition at 100 µM [1, 3]: 0.7%
inhibition at 500 µM [1, 4]: > 30%
SMILES: COc1ccc([C@@H]2CC(=O)c3c(O)cc(O)cc3O2)cc1O [Hesperetin]

relative IC50 ratio [1]: 1
IC50 [1]: 23 µM
SMILES: O=c1cc(-c2ccc(O)c(O)c2)oc2cc(O)cc(O)c12 [Luteolin]

inhibition at 100 µM [1, 3]: > 30%
relative IC50 ratio [1]: 7.96
IC50 [1]: 183 µM
SMILES: C[C@@H]1O[C@@H](O[C@H]2[C@H](Oc3cc(O)c4c(=O)cc(-c5ccc(O)cc5)oc4c3)O[C@H](CO)[C@@H](O)[C@@H]2O)[C@H](O)[C@H](O)[C@H]1O [Rhoifolin, apigenin 7-O-glycoside]

inhibition at 100 µM [1, 3]: 4.5%
inhibition at 500 µM [1, 4]: 23.3%
SMILES: C[C@@H]1O[C@@H](O[C@H]2[C@H](Oc3cc(O)c4c(c3)O[C@H](c3ccc(O)cc3)CC4=O)O[C@H](CO)[C@@H](O)[C@@H]2O)[C@H](O)[C@H](O)[C@H]1O [Naringin]
